Measurements from ChEMBL document CHEMBL5291721, “A preclinical secondary pharmacology resource illuminates target-adverse drug reaction associations of marketed drugs” (Nat Commun, 2023).

Legend:
[1] = molecular target: 5-hydroxytryptamine receptor 2A (Homo sapiens, UniProt P28223); format: functional, cell-based
[2] = molecular target: T1, Alpha-2B adrenergic receptor (Homo sapiens, UniProt P18089)
T1 sequence (P18089 whole entry): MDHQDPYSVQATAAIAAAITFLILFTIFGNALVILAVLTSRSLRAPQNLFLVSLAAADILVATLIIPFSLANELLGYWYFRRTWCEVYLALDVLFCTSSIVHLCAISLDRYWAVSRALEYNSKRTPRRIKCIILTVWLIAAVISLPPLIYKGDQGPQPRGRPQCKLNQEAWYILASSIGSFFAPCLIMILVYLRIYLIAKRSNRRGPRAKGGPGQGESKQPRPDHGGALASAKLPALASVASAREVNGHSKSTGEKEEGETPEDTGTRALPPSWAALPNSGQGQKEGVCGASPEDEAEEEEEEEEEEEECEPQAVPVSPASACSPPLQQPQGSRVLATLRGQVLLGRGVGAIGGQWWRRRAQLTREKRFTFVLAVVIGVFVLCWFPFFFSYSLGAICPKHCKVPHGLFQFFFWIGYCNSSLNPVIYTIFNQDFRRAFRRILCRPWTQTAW

[3] = molecular target: Mu-type opioid receptor (Homo sapiens, UniProt P35372)
[4] = molecular target: Histamine H3 receptor (Homo sapiens, UniProt Q9Y5N1)
[5] = molecular target: T2, Thromboxane A2 receptor (Homo sapiens, UniProt P21731); format: functional, cell-based
T2 sequence (P21731 whole entry): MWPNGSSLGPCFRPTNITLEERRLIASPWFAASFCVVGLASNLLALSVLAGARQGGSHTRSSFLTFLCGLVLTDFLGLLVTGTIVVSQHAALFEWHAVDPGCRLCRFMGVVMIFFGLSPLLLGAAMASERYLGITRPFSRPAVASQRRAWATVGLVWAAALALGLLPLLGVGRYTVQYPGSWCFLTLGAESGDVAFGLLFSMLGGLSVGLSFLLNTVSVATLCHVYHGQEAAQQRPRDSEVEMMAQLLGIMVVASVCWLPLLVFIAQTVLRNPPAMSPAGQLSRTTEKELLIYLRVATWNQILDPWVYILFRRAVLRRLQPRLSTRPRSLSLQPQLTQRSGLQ

[6] = molecular target: Prostaglandin G/H synthase 1 (Homo sapiens, UniProt P23219); format: functional
[7] = molecular target: T3, 5-hydroxytryptamine receptor 1A (Homo sapiens, UniProt P08908)
T3 sequence (P08908 whole entry): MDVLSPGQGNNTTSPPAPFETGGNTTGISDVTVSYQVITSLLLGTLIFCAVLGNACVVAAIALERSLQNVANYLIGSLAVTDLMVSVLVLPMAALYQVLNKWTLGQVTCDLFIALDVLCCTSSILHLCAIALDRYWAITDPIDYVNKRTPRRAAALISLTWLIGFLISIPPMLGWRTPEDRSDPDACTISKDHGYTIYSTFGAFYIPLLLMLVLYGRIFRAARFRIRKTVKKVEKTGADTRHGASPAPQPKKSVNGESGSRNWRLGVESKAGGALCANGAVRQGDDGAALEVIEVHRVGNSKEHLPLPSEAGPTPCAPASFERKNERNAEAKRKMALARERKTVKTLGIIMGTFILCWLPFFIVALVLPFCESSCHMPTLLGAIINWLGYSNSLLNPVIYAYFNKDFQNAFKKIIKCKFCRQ

[8] = molecular target: Sodium-dependent noradrenaline transporter (Homo sapiens, UniProt P23975)
[9] = molecular target: Histamine H2 receptor (Homo sapiens, UniProt P25021); format: functional, cell-based
[10] = molecular target: T4, Neuropeptide Y receptor type 1 (Homo sapiens, UniProt P25929)
T4 sequence (P25929 whole entry): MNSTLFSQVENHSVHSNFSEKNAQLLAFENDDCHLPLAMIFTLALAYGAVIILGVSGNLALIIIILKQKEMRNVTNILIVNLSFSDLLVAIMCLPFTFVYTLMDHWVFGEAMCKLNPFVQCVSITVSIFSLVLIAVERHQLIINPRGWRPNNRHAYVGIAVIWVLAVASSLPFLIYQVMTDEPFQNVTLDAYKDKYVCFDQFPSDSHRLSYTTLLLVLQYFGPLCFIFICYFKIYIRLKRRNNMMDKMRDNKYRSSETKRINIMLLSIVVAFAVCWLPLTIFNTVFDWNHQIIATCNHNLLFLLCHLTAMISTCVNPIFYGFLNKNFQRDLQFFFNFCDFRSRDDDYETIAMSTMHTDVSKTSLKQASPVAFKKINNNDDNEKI

[11] = molecular target: T2, Thromboxane A2 receptor
[12] = molecular target: T5, Estrogen receptor (Homo sapiens, UniProt P03372)
T5 sequence (P03372 whole entry): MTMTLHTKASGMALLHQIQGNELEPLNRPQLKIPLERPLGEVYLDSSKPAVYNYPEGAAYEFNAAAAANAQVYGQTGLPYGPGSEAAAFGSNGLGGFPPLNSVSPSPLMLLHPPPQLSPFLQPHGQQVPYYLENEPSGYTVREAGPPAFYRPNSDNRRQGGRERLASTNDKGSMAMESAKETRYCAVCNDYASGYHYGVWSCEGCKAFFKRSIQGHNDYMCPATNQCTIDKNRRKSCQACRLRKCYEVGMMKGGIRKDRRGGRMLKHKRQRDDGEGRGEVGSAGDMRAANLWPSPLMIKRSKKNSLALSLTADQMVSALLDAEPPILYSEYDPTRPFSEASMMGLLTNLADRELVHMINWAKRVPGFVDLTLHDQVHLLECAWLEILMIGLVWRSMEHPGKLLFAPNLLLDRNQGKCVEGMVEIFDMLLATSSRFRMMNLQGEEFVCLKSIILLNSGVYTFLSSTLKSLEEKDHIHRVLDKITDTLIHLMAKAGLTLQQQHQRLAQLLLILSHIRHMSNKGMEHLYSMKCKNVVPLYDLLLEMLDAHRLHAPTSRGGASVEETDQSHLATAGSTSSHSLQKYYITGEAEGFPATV
Note: assay procedure not described here.

Chain of Sodium-dependent noradrenaline transporter (P23975 whole entry): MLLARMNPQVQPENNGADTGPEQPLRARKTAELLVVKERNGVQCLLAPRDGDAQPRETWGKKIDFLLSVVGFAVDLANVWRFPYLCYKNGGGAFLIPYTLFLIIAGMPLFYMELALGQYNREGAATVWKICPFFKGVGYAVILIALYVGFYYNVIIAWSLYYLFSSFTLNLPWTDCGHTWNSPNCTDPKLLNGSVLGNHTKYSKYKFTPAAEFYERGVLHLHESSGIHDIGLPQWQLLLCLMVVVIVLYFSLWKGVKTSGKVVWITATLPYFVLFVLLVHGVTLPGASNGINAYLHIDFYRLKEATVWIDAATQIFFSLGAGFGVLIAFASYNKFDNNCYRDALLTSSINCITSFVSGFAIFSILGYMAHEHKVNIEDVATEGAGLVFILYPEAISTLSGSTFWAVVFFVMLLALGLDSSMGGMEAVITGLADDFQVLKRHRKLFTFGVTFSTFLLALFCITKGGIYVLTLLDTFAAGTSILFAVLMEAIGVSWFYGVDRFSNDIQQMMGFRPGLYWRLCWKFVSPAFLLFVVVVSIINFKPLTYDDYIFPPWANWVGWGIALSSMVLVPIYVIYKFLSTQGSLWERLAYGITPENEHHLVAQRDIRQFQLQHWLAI
Chain of Mu-type opioid receptor (P35372 whole entry): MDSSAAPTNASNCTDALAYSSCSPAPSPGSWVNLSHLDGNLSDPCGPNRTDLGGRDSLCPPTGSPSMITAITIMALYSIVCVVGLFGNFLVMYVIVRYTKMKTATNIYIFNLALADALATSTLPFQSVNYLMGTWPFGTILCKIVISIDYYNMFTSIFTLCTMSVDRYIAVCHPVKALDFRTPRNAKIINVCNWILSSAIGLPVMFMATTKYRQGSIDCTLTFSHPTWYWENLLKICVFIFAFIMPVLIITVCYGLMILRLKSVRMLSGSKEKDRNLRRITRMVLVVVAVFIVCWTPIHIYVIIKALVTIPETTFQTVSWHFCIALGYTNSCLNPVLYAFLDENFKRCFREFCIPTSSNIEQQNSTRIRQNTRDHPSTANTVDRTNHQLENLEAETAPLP
Chain of Prostaglandin G/H synthase 1 (P23219 whole entry): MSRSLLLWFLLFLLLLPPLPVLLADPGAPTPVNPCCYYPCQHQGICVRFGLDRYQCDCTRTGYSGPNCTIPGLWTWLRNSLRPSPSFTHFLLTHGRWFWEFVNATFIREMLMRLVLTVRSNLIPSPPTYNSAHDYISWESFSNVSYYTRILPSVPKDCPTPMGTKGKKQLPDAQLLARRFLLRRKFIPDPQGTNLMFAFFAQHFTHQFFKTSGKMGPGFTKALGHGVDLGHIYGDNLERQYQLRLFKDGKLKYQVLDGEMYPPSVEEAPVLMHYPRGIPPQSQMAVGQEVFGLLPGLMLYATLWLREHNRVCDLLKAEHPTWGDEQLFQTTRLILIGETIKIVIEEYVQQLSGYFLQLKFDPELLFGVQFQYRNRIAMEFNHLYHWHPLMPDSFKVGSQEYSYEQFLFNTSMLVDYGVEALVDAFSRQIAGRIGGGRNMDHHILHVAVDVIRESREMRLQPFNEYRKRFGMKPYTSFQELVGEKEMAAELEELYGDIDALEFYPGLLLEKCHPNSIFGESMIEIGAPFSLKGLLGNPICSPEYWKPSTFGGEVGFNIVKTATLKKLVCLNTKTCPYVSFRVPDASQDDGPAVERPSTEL
Chain of Histamine H2 receptor (P25021 whole entry): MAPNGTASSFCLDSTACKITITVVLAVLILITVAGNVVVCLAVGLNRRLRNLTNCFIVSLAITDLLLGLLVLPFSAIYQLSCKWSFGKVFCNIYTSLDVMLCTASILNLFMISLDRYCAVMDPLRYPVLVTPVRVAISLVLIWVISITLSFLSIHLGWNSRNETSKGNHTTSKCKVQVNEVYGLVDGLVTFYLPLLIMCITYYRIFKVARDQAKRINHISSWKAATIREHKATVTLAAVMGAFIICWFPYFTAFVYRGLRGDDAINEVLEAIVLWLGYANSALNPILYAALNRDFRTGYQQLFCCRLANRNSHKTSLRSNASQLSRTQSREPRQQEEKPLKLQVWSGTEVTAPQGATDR
Chain of 5-hydroxytryptamine receptor 2A (P28223 whole entry): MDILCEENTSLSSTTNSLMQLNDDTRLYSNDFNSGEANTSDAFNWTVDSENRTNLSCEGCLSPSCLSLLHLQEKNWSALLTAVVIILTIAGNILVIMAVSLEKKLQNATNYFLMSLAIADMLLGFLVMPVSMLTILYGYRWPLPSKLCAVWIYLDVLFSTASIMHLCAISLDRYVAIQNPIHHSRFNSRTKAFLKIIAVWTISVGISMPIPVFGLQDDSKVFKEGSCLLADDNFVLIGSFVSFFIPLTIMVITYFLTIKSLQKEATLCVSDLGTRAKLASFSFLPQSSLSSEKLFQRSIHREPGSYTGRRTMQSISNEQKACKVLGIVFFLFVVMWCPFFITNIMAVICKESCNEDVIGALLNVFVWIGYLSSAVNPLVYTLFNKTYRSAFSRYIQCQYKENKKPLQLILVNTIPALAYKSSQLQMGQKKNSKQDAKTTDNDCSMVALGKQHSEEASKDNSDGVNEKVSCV
Chain of Histamine H3 receptor (Q9Y5N1 whole entry): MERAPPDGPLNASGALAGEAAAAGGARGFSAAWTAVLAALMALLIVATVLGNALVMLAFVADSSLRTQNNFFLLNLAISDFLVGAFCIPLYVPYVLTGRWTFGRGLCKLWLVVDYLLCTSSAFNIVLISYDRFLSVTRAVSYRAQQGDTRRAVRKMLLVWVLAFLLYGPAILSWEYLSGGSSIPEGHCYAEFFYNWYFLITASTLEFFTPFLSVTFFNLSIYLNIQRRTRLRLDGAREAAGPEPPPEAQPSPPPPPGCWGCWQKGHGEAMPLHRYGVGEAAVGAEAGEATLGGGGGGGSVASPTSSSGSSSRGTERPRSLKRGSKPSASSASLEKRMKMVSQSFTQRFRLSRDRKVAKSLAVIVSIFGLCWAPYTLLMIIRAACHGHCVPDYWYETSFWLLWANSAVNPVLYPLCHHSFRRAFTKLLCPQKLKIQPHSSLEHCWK

SMILES	AC50 [1]	AC50 [2]	AC50 [3]	AC50 [4]	AC50 [5]	AC50 [6]	AC50 [7]	AC50 [8]	AC50 [9]	AC50 [10]	AC50 [11]	AC50 [12]
CCOCC(O)COc1ccc(NC(=O)CC[S+](C)C)cc1 (stereo unspecified)	> 30 µM	> 30 µM	> 30 µM	> 30 µM								
O=C(O)[C@@H](S)[C@@H](S)C(=O)O					> 30 µM	> 30 µM	> 30 µM	> 30 µM				
CCC[C@@]1(CCc2ccccc2)CC(O)=C([C@H](CC)c2cccc(NS(=O)(=O)c3ccc(C(F)(F)F)cn3)c2)C(=O)O1	11 µM	> 30 µM	> 30 µM	> 30 µM								
O=C(O)COC(=O)Cc1ccccc1Nc1c(Cl)cccc1Cl [ACECLOFENAC]			> 30 µM	> 10 µM					> 10 µM	> 30 µM	2.54 µM	
CN(C)CCc1c[nH]c2ccc(CS(=O)(=O)N3CCCC3)cc12 [ALMOTRIPTAN]	> 30 µM	30 µM		> 30 µM					> 30 µM	> 30 µM		
CC[N+](CC)(CCNC(=O)C(=O)NCC[N+](CC)(CC)Cc1ccccc1Cl)Cc1ccccc1Cl [AMBENONIUM]	> 30 µM	> 30 µM		21 µM					> 30 µM	> 30 µM	> 30 µM	
NCCCNCCSP(=O)(O)O [AMIFOSTINE]				> 30 µM					> 30 µM	> 30 µM	> 30 µM	
CN1CC2c3ccccc3Oc3ccc(Cl)cc3C2C1 (stereo unspecified) [ASENAPINE]	0.0002 µM		> 30 µM	> 30 µM								
Cn1cnc2c(F)c(Nc3ccc(Br)cc3F)c(C(=O)NOCCO)cc21 [BINIMETINIB]	> 30 µM	> 30 µM	> 30 µM	> 30 µM								
CN(C)CCOC(c1ccc(Cl)cc1)c1ccccn1 (stereo unspecified) [CARBINOXAMINE]	> 30 µM	19 µM		3.5 µM					> 30 µM	> 30 µM		
O=C(Cc1cccs1)N[C@@H]1C(=O)N2C(C(=O)[O-])=C(C[n+]3ccccc3)CS[C@H]12 [CEPHALORIDINE]	> 30 µM	> 30 µM			> 30 µM	> 30 µM	> 30 µM	> 30 µM	> 30 µM			> 30 µM
C[C@H](CCC(=O)O)[C@H]1CC[C@H]2[C@@H]3[C@H](O)C[C@@H]4C[C@H](O)CC[C@]4(C)[C@H]3CC[C@]12C [CHENODIOL]	> 30 µM	> 30 µM	> 30 µM	> 30 µM								
O=C(O)[C@H]1/C(=C/CO)O[C@@H]2CC(=O)N21 [CLAVULANIC ACID]	> 30 µM	> 30 µM	> 30 µM	> 30 µM								
CC(C)/N=c1\cc2n(-c3ccc(Cl)cc3)c3ccccc3nc-2cc1Nc1ccc(Cl)cc1 [CLOFAZIMINE]	> 30 µM	> 30 µM		> 30 µM					> 30 µM	> 30 µM	> 30 µM	
CCCCCCCCCCCCCCCC(=O)OC[C@H](COP(=O)([O-])OCC[N+](C)(C)C)OC(=O)CCCCCCCCCCCCCCC [COLFOSCERIL PALMITATE]					> 30 µM	> 30 µM	> 30 µM	> 30 µM				> 30 µM
C[C@@H](CN1CC(=O)NC(=O)C1)N1CC(=O)NC(=O)C1 [DEXRAZOXANE]					> 30 µM	5.98 µM	> 30 µM	> 30 µM				> 30 µM
O=c1[nH]cc(F)c(=O)[nH]1 [FLUOROURACIL]				> 30 µM	> 30 µM	> 30 µM	> 30 µM	> 30 µM		> 30 µM		
CCOC(=O)Nc1ccc(NCc2ccc(F)cc2)nc1N [FLUPIRTINE]	> 10 µM	> 30 µM		> 30 µM					> 30 µM	> 30 µM	29 µM	
C[C@@H](O)[C@H]1C(=O)N2C(C(=O)O)=C(SCCN=CN)C[C@H]12 [IMIPENEM ANHYDROUS]	> 300 µM	> 300 µM	> 300 µM	180 µM								
N[C@@H](Cc1cc(I)c(Oc2cc(I)c(O)c(I)c2)c(I)c1)C(=O)O [LEVOTHYROXINE]	> 30 µM	> 30 µM		> 30 µM					> 30 µM	> 30 µM		
CC(=O)NC[C@H]1CN(c2ccc(N3CCOCC3)c(F)c2)C(=O)O1 [LINEZOLID]		> 30 µM		> 30 µM					> 30 µM	> 30 µM	> 30 µM	
O=NN(CCCl)C(=O)NC1CCCCC1 [LOMUSTINE]					> 30 µM	> 30 µM	> 30 µM	> 30 µM				
CO[C@@]1(NC(=O)C(C(=O)O)c2ccc(O)cc2)C(=O)N2C(C(=O)O)=C(CSc3nnnn3C)CO[C@@H]21 (stereo partly specified) [MOXALACTAM]					> 30 µM	> 30 µM	> 30 µM	> 30 µM				> 30 µM
CO[C@@H]1[C@@H](OC(N)=O)[C@@H](O)[C@H](Oc2ccc3c(O)c(NC(=O)c4ccc(O)c(CC=C(C)C)c4)c(=O)oc3c2C)OC1(C)C [NOVOBIOCIN]	> 30 µM	> 30 µM	> 30 µM	> 30 µM								
COc1cccc2c1C(=O)c1c(O)c3c(c(O)c1C2=O)C[C@@](O)(C(=O)CO)C[C@@H]3O[C@H]1C[C@H](N)[C@H](O[C@@H]2CCCCO2)[C@H](C)O1 [PIRARUBICIN]					> 1 µM	1.57 µM	> 30 µM	> 30 µM				> 30 µM
COc1cc2c(cc1OC)C1CC(=O)C(CC(C)C)CN1CC2 (stereo unspecified) [TETRABENAZINE]	> 30 µM	> 30 µM	> 30 µM	> 30 µM								
CC(C)(CO)c1cc2cc(NC(=O)C3(c4ccc5c(c4)OC(F)(F)O5)CC3)c(F)cc2n1C[C@@H](O)CO [TEZACAFTOR]	16 µM	> 30 µM	> 30 µM	> 30 µM								
c1cnc2cc3c(cc2n1)[C@@H]1CNC[C@H]3C1 [VARENICLINE]	> 30 µM	> 30 µM	> 30 µM	> 30 µM								
Nc1c2c(nc3ccccc13)CCCC2O (stereo unspecified) [VELNACRINE]	> 30 µM	> 30 µM	> 30 µM	> 30 µM								
